This is an account of results in article PMC8129719 (CPT: Pharmacometrics & Systems Pharmacology, 2021).

For data set [1] the following is noted: probenecid 500 mg 4 times a day; ref Willemin et al. (accepted for publication); cited from earlier work.
Data set [2] is classed as in vivo, human. To be noted: for CL renal: female, human, plasma and urine, oral; for contribution of renal elimination to total clearance: from model CLr and CLnr; for CLr, IIV (SE%) / k syn, IIV (SE%): interindividual variability; for CLnr, population estimate (SE%): nonrenal clearance of biomarker; for V, population estimate (SE%): volume of distribution of biomarker; for k syn, population estimate (SE%): zero-order synthesis rate.

For data set [3] the following is noted: probenecid 1000 mg single dose, 14 healthy volunteers, digitized data; cited from earlier work.
Data set [4] can be described thus: Population PK model of probenecid plasma data. It is filed as in vivo, human. To be noted: for CL, IIV (SE%) / V, IIV (SE%): interindividual variability.

SMILES strings stand for the structures. “And” between values parts separate entries of the source, which are not always exact repeats. Identical values can stand only once. Counter-ions that a name gives are not always drawn. Like-named read-outs stand apart in the source and are kept apart here.

`C[C@H](CCC(=O)NCC(=O)O)[C@H]1CC[C@H]2[C@@H]3[C@H](O)C[C@@H]4C[C@H](OS(=O)(=O)O)CC[C@]4(C)[C@H]3CC[C@]12C` [GCDCA-S, glycochenodeoxycholate sulfate]: the “fold change of plasma AUC0-24 h following probenecid” value (from here on “fold change”) in data set [1] was 1.9 fold.

Take `COc1cc(CC(=O)O)ccc1O` [HVA, homovanillic acid]: in data set [2], the CL renal was 340 mL/min; the “contribution of renal elimination to total clearance” value worked out at 94%; the “CLr, IIV (SE%)” value is given as 23 (26) %; the “k syn, IIV (SE%)” value was 27 (19) %. For the same compound, in data set [2], the “CLnr, population estimate (SE%)” value is reported as 1.29 (69) L/h; the “V, population estimate (SE%)” value is 105 (35) L; the “k syn, population estimate (SE%)” value is reported as 212 (16) µg/h. In addition, the “CLr, IOV (SE%)” value in data set [2] (interoccasion variability) is recorded as 5 (48) %. Further, the “fold change” value in data set [1] is 2.2 fold.

`Cc1ncc(CO)c(C(=O)O)c1O` [PDA, Pyridoxic acid]: in data set [2], the CL renal was 253 mL/min; the “contribution of renal elimination to total clearance” value is given as 82%; the “CLr, IIV (SE%)” value is 27% and 27 (15) %; the “k syn, IIV (SE%)” value is 32% and 32 (34) %. Moreover, in data set [2], the “CLnr, population estimate (SE%)” value was 3.23 (41) L/h; the “V, population estimate (SE%)” value is 9.34 (56) L; the “k syn, population estimate (SE%)” value is 58.6 (26) µg/h. For the same compound, the “k syn, IOV (SE%)” value in data set [2] (interoccasion variability between the two phases) is given as 22 (57) %. The “fold change” value in data set [1] is listed as 3.9 fold. Also, the “mean plasma AUC0-tlast ratio, observed” value in data set [3] was 1.95.

Take `CCCN(CCC)S(=O)(=O)c1ccc(C(=O)O)cc1` [Probenecid, probenecid]: in data set [4] (absorption rate constant), the “ka, population estimate (SE%)” value is reported as 0.74 (45) /h. For the same compound, in data set [4], the “CL, IIV (SE%)” value is on record as 23 (23) % and the “V, IIV (SE%)” value is listed as 40 (29) %. Moreover, in data set [4] (listed as probenecid), the “CL, IIV (SE%)” value amounted to 23% and the “V, IIV (SE%)” value came to 40%. Besides, the “V, population estimate (SE%)” value in data set [4] (probenecid one-compartment model) was 15 (22) L.
